Laboratory results reported in patent US12239132B2, “Compounds and methods for increasing soil nutrient availability” (SOUND AGRICULTURE COMPANY, priority 2018, dated 2025).

What follows are compounds tested on Bacillus megaterium (assay: Phosphate solubilization assay with Bacillus megaterium (liquid NBRIP, malachite green)). Settings: 25 ug/mL (solvent 50% acetone), NBRIP, 72 h.
Format: cell-based
Procedure: In some aspects, a compound disclosed herein, e.g., AB09, stimulates bacterial phosphate solubilization activity. […] Cultures of B. megaterium were grown in media containing only insoluble phosphorus with and without a compound such as AB09. At the start of the experiment, there was no detectable difference of orthophosphate levels in the growth media alone and media supplemented with B. megaterium and/or AB09. Orthophosphate was measured after 72 hours of bacterial growth. Specifically, A 5 mL culture of B. megaterium was seeded from a single colony into Nutrient Broth (NB) and grown overnight in a 30° C. shaker. The cell pellet was collected by centrifugation, washed twice and resuspended in water. The concentration of B. megaterium was measured using a Nanodrop OD600 reading. B. megaterium was inoculated into liquid NBRIP media, which contains insoluble tricalcium phosphate as its sole phosphorus source. The final concentration of B. megaterium in the NBRIP media was OD600=0.02 ([…]). NBRIP media was supplemented with ML in a 1% DMSO solution to a final concentration of 100 ug/ML or 1% DMSO (both were filter sterilized through a 0.2 uM filter). Cell counts at the start of the experiment (0 hours) and at 72 hours post inoculation were measured using dilution plating. At the experiment start and after 72 hours of growth, 1 mL of culture was collected from the culture tubes. The supernatant was collected by centrifugation (5 min at 13,000 rpm). The cleared supernatant was diluted […] in molecular grade water and used for orthophosphate analysis. The remaining 4 mL of supernatant were collected by centrifugation for pH readings. Orthophosphate was measured using the malachite-green phosphate method (BioAssay Systems Malachite Green Phosphate Assay Kit Catalog No: POMG-25H). Briefly, the sample is mixed with a solution of Malachite Green and molybdate, which forms a green complex with free orthophosphate from the sample. Data are quantified on a plate reader at 620 nm. Unknown samples were run with a standard curve of known concentrations of orthophosphate. […] Phosphate solubilization in NBRIP culture media is shown at experiment start (0 h) and after 72 hours of shaking at 30° C. The left axis corresponds to box plots and whisker plots of the concentration of solubilized phosphate in the bacterial supernatant. The right axis corresponds to the pH of the supernatant. n=7 culture tubes for each B. megaterium with and without ML, and n=3 culture tubes for no bacteria with and without AB09. The malachite green phosphate assay was performed in triplicate. […] In some instances, disclosed herein are experimental culture tubes of B. megaterium growing in NBRIP without ML (AB09; leftmost two tubes) and with 100 ug/mL ML (right three tubes).
A strain of Bacillus megaterium (B. megaterium) was isolated from Iowa field soil and confirmed its ability to solubilize phosphorus by observing a cleared zone (or halo) around B. megaterium colonies when grown on solid media (NBRIP+Agar) containing only in insoluble form of phosphorus, Ca3(PO4)2. Cultures of B. megaterium were then grown in liquid NBRIP (containing only insoluble Ca3(PO4)2) with and without AB09. The growth media supernatant was analyzed for orthophosphate at the start of the experiment (0 h) and after 72 hours of growth by the malachite green quantification method.
FIG. 1A illustrates phosphate solubilization in NBRIP culture media at experiment start (0 h) and after 72 hours of shaking at 30° C. The left axis corresponds to box plots and whisker plots of the concentration of available phosphate (orthophosphate) in the bacterial supernatant. […] The malachite green phosphate assay was performed in triplicate. FIG. 1B illustrates an example of experimental culture tubes of B. megaterium growing in NBRIP without AB09 (leftmost two tubes) and with 100 ug/mL AB09 (right three tubes). […]

SMILES | phosphate solubilization effect compared to the original AB09 molecule
CC1=C(C)C(Oc2c(C)occc2=O)OC1=O (stereo not drawn) [SA-002] | enhanced phosphate solubilization effect
CC1=CC(Oc2cc(C)oc(=O)c2)OC1=O (stereo not drawn) [SA-004] | enhanced phosphate solubilization effect
CCc1occc(=O)c1OC1C=C(C)C(=O)O1 (stereo not drawn) [SA-005] | did not differ from AB09
